Laboratory results reported in US20200031920A1, “Combination Therapy for Treating Cancer” (The George Washington University, priority 2017, published 2020).

How the values were obtained:
SKOV3 CR cells [1] = experiment: combinational high throughput screen with cisplatin; format: cell-based; conditions: in combination with DMSO, 1 μM cisplatin or 20 μM cisplatin
Description: A combinational HTS using multiple compound libraries including NPC (NIH Pharmaceutical Collection), MIPE (Mechanism interrogation plate), and LOPAC (The Library of Pharmacologically Active Compounds) was used to identify compounds that can overcome cisplatin resistance of SKOV3 CR cells (FIG. 5). The library of pharmacologically active compounds (LOPAC®) of 1280 compounds (1) was purchased from Sigma. The NCGC Pharmaceutical Collection (NPC) of 2816 compounds and mechanism interrogation plate (MIPE) library of 1920 compounds were previously described. Bromberg, J Clin Invest 109: 1139-1142 (2002) and Buchert et al., Oncogene 35: 939-951 (2016). Compounds from all libraries were obtained as powder and dissolved in dimethyl sulfoxide (DMSO) […]. Combinational HTS was performed as previously described. Szasz et al., Oncotarget 7: 49322-49333 (2016). A total of 6,016 compounds were screened. […] In the second screen, these 112 compounds were selected for a dose-response confirmation screen in combination with DMSO, 1 μM cisplatin or 20 μM cisplatin (FIG. 5).

SKOV3 CR cells [2] = experiment: cell viability / proliferation (SRB) assay, cisplatin resistant SKOV3 CR cells; format: cell-based; conditions: for sensitization of SKOV3 CR cells to cisplatin (proliferation): combination with cisplatin at different doses, FIG. 13: 0.4 μM LY2784544, five days; for medium CI (combination index): combination with cisplatin, CI<1 synergism
Protocol: (§1) FIG. 1 is a line graph showing the proliferation of SKOV3 parental and SKOV3 CR cells treated with increasing concentrations of cisplatin for five days. Data are represented as mean±SD from three independent experiments performed in triplicate. Indicated IC50 values represent the mean of two independent experiments performed in triplicate.
(§2) FIG. 13 is a line graph showing the proliferation of SKOV3 parental and SKOV3 CR cells treated with increasing concentrations of cisplatin and 0.4 μM LY2784544 for five days. Data are represented as mean±SD from three independent experiments performed in triplicate.
(§3) Cisplatin resistant ovarian cancer cell lines were generated using procedures as described previously. Jazaeri et al., Mol Cancer Ther 12: 1958-1967 (2013). Ovarian cancer cells SKOV3 were cultured in the medium with cisplatin (Sigma-Aldrich) for three weeks, followed by release to cisplatin-free medium for another three weeks. In the next cycle, the cisplatin treatment was repeated in the medium with an increased concentration of cisplatin. After six-cycle treatment, cells were identified that were able to grow in the medium with a high concentration of cisplatin. These cisplatin resistant cells were named as SKOV3 CR (FIG. 1).
(§4) The results obtained from combinational HTS were confirmed by testing whether LY2784544 overcomes cisplatin resistance in ovarian cancer cells using multiple assays. […] The Combination index (CI), which quantitatively describes the interaction between drugs including synergism (CI<1), additive effect (CI=1), and antagonism (CI>1), was calculated.

[3] = tested on: reactive oxygen species (ROS); experiment: ROS production (CellROX Orange reagent); format: cell-based; conditions: SKOV3 cells, YCG063 20 μM, cisplatin 1 μM, 24 hr
Protocol: FIG. 69 are bar graphs ((A)-(C) and (E)-(F)) and illustrations ((D) and (G)) showing that reactive oxygen species (ROS) induces IL-11 expression. (A) is a bar graph showing quantification of ROS production in SKOV3 and SKOV3 CR cells. Data are represented as means±SD from three independent experiments. **p<0.01. Scale bar, 100 μm. (B) is a bar graph showing quantification of ROS production in SKOV3 CR cells after treatment with the ROS inhibitor YCG063 at 20 μM for 24 hr. Data are represented as means±SD from three independent experiments. ***p<0.001. (C) is a bar graph showing IL-11 levels measured by ELISA in the medium of SKOV3 CR cells treated with YCG063 at 20 μM for 24 hr. Data are represented as mean±SD from three independent experiments performed in triplicate. ***p<0.001. […] (E) is a bar graph showing quantification of ROS production in SKOV3 cells after treated with the ROS inhibitor YCG063 (20 μM), cisplatin (1 μM), or both for 24 hr. […] (F) is a bar graph showing IL-11 levels measured by ELISA in SKOV3 cells treated with YCG063 (20 μM), cisplatin (1 μM) or both for 24 hr. […]
DNA damage induces generation of reactive oxygen species (ROS). […] ROS was detected with a live cell-permeable, fluorophore CellROX Orange reagent (Thermo Fisher Scientific) according to the manufacturer's instructions. […] ROS intensity was analyzed using ImageJ (NIH) software. […]

IL-11 = IL-11 secretion by ELISA in cell culture medium; format: cell-based, human; conditions: 24 hr
Protocol: FIG. 69 are bar graphs ((A)-(C) and (E)-(F)) and illustrations ((D) and (G)) showing that reactive oxygen species (ROS) induces IL-11 expression. (A) is a bar graph showing quantification of ROS production in SKOV3 and SKOV3 CR cells. Data are represented as means±SD from three independent experiments. **p<0.01. Scale bar, 100 μm. (B) is a bar graph showing quantification of ROS production in SKOV3 CR cells after treatment with the ROS inhibitor YCG063 at 20 μM for 24 hr. Data are represented as means±SD from three independent experiments. ***p<0.001. (C) is a bar graph showing IL-11 levels measured by ELISA in the medium of SKOV3 CR cells treated with YCG063 at 20 μM for 24 hr. Data are represented as mean±SD from three independent experiments performed in triplicate. ***p<0.001. (D) is an illustration showing an immunoblot of phosphorylated JAK2 and STAT5 in SKOV3 CR cells treated with YCG063 (20 μM) for 24 hr. (E) is a bar graph showing quantification of ROS production in SKOV3 cells after treated with the ROS inhibitor YCG063 (20 μM), cisplatin (1 μM), or both for 24 hr. Data are represented as means±SD from three independent experiments. **p<0.01, ***p<0.001, n.s. means not significant by one-way ANOVA. (F) is a bar graph showing IL-11 levels measured by ELISA in SKOV3 cells treated with YCG063 (20 μM), cisplatin (1 μM) or both for 24 hr. Data are represented as mean±SD from three independent experiments performed in triplicate. ***p<0.001 by one-way ANOVA. (G) is an illustration showing an immunoblot of phosphorylated JAK2 and STAT5 in SKOV3 CR cells treated with YCG063 (20 μM), cisplatin (1 μM) or both for 24 hr.
Next, the factor from medium that contributes to cisplatin resistance of SKOV3 CR cells was investigated. […] The cell-free culture medium, mouse serum, and patient serum were analyzed for IL-11 levels using a human IL-11 ELISA kit (R&D Systems) according to the manufacturer's instructions. The absorbance was read at 450 nm using a microplate reader (BioTek). The data were normalized to the cell number. […]

[4] = tested on: phosphorylation of JAK2 (Y1007/1008) and STAT5 (Y694); experiment: western blot of JAK2/STAT5 signaling; format: cell-based
Protocol: FIG. 22 is an illustration showing that LY2784544 down-regulates JAK2/STAT5 signaling in SKOV3 CR cells. Cells were treated with the indicated concentrations of LY2784544 for 48 hr.
FIG. 23 is an illustration showing the immunoblotting for the indicated targets in SKOV3 CR cells treated with vehicle (DMSO), 3 μM LY2784544, 5 μM cisplatin, or the combination for 48 hr.
To investigate the molecular mechanism by which the JAK2-mediated pathway regulates cisplatin resistance of ovarian cancer, the activation of the JAK2-mediated pathway in paired sensitive cell line (SKOV3, IGROV1, PEO1) and resistant cell lines (SKOV3 CR, IGROV1 CR, PEO4) was examined by western blot. Compared to cisplatin sensitive cells SKOV3 or IGROV1, the JAK2 protein levels are not changed in cisplatin resistant cells SKOV3 CR, IGROV1 CR, or PEO4.
The effects of LY2784544 on the JAK2/STAT5 signaling pathway in both SKOV3 and SKOV3 CR cells were examined.

FRA1 = experiment: immunoblot of phosphorylated and total FRA1; format: cell-based; conditions: SKOV3 CR cells, 20 μM, 24 hr
Description: FIG. 70 are illustrations ((A), (B), and (D)) and a bar graph (C) showing that ROS induces IL-11 expression by promoting expression of FOSL1 (FRA1). (A) is an illustration showing total and phosphorylated levels of FRA1 in SKOV3 and SKOV3 CR cells. […] (C) is a bar graph showing IL-11 levels measured by ELISA in the medium of SKOV3 CR cells transfected with FOSL1 siRNA for 48 hr. Data are represented as mean±SD from three independent experiments performed in triplicate. ***p<0.001. (D) is an illustration showing an immunoblot of phosphorylated and total FRA1 protein in SKOV3 CR cells treated with YCG063 20 μM for 24 hr.
To achieve this goal, pathway analyses using PathwayNet were conducted, which identified a total of 20 transcription factors that likely regulate IL-11. […] It was next tested whether ROS is required for activation or expression of FRA1 by treating SKOV3 CR cells with YGC063.

SKOV3 cells = experiment: cell viability / proliferation (SRB) assay, SKOV3 parental cells; format: cell-based
Protocol: as §1, §2, §3, §4

Molecule: NS(=O)(=O)OC[C@@H]1C[C@@H](n2ccc3c(N[C@H]4CCc5ccccc54)ncnc32)C[C@@H]1O [MLN4924]
- sensitization to cisplatin in second (dose-response confirmation) screen (SKOV3 CR cells [1]): significantly sensitize SKOV3 CR cells to cisplatin
- sensitization of SKOV3 CR cells to cisplatin (proliferation) (SKOV3 CR cells [2]): can sensitize SKOV3 CR cells to cisplatin

Molecule: C/C(=N\NC(=S)N1CCC1)c1ccccn1 [NSC319726]
- sensitization to cisplatin in second (dose-response confirmation) screen (SKOV3 CR cells [1]): significantly sensitize SKOV3 CR cells to cisplatin
- sensitization of SKOV3 CR cells to cisplatin (proliferation) (SKOV3 CR cells [2]): can sensitize SKOV3 CR cells to cisplatin

Molecule: Cc1cnc(Nc2ccc(CN3CCOCC3)cc2)nc1Nc1cccc(S(=O)(=O)NC(C)(C)C)c1 [TG46]
- medium CI (combination index) (SKOV3 CR cells [2]; SKOV3 CR cells): 0.77

Molecule: Cc1cnc(Nc2ccc(OCCN3CCCC3)cc2)nc1Nc1cccc(S(=O)(=O)NC(C)(C)C)c1 [TG101348]
- medium CI (combination index) (SKOV3 CR cells [2]; SKOV3 CR cells): 0.77

Molecule: CCCCCOc1ccc(/C=N/NC(=O)CSc2c([N+](=O)[O-])ncn2C)cc1 [YCG063]
- ROS production [3]: suppressed ROS production in SKOV3 cells
- IL-11 secretion (IL-11; SKOV3 CR cells, YCG063 20 μM): significantly reduced IL-11 secretion
- cisplatin-induced IL-11 secretion (IL-11; SKOV3 cells, YCG063 20 μM with cisplatin 1 μM): suppressed cisplatin-induced IL-11 secretion
- phosphorylation of JAK2 and STAT5 ([4]; SKOV3 CR cells, YCG063 20 μM, 24 hr): significantly reduced
- expression and phosphorylation of FRA1 (FRA1): reduced the expression of FRA1 as well as its phosphorylation

Molecule: N.N.O=C([O-])C1(C(=O)[O-])CCC1.[Pt+2] [carboplatin]
- fold increase of IC50, SKOV3 CR compared to parental SKOV3 (SKOV3 CR cells [2]; 5 days): 4 fold
- IC50 (SKOV3 CR cells [2]; SKOV3 CR cells, 5 days): 118 µM
- IC50 (SKOV3 cells; SKOV3 parental cells, 5 days): 25.2 µM

B1: recombinant IL-11: recombinant human IL-11 (R&D Systems) (protein, UniProt P20809 22-199, looked up)
Interleukin-11: PGPPPGPPRVSPDPRAELDSTVLLTRSLLADTRQLAAQLRDKFPADGDHNLDSLPTLAMSAGALGALQLPGVLTRLRADLLSYLRHVQWLRRAGGSSLKTLEPELGTLQARLDRLLRRLQLLMSRLALPQPPPDPPAPPLAPPSSAWGGIRAAHAILGGLHLTLDWAVRGLLLLKTRL
- phosphorylation of JAK2 and STAT5 ([4]; SKOV3 parental cells, 10 ng/mL IL-11 for 4 hr): did increase the phosphorylation of JAK2 (Y1007/1008) as well as phosphorylation of STAT5 (Y694)
- resistance of SKOV3 cells to cisplatin (proliferation) (SKOV3 cells; IL-11 for 4 hr then cisplatin 5 days): significantly increased its resistance to cisplatin
